# Test results from patent publication US20250163104A1, “MACROCYCLIC IMMUNOMODULATORS” (priority 2021, published 2025).
# Where a SMILES comes first, the peptide text is derived from it. Bridges are numbered along the chain shown (N, C = ends). [ ]: non-standard residue; d: D form. The star is where a group is joined. Phe(3-CF3) = N[C@@H](Cc1cccc(C(F)(F)F)c1)C(=O)O; Phe(4-COOH) = N[C@@H](Cc1ccc(C(=O)O)cc1)C(=O)O; Bip = N[C@@H](Cc1ccc(-c2ccccc2)cc1)C(=O)O; 4Pal = N[C@@H](Cc1ccncc1)C(=O)O; Cha = N[C@@H](CC1CCCCC1)C(=O)O; dCha = N[C@H](CC1CCCCC1)C(=O)O; dNle = CCCC[C@@H](N)C(=O)O; Carboxymethyl = O=C(O)C*; Orn = NCCC[C@H](N)C(=O)O; Dab = NCC[C@H](N)C(=O)O; Dap = NC[C@H](N)C(=O)O
# Biological target: T1, human PD-1 / PD-L1-Ig binding on Jurkat cell line over-expressing human PD-1 (Jurkat-PD-1) (Homo sapiens, UniProt Q15116)
# T1 construct: expressed in transfected cells; host or cells: Jurkat
# Experiment: Jurkat-PD-1 Cell Binding High-Content Screening Assay (CBA)
# Assay type: cell-based
# Conditions: Jurkat-PD-1 cells, PE-labeled PD-L1-Ig 20 nM final; read-out: Jurkat HPD1_PDL1 IC50
# Outline: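 Cell-bound PE-labeled PD-L1-Ig (20 nM final, 1 h) measured by high-content imaging after fixation and Hoechst 33342 counterstain. Compound was applied first for 2 h at 37° C. to Jurkat cells over-expressing human PD-1 in DMEM with 10% FCS.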
# T1 sequence (Q15116 25-288): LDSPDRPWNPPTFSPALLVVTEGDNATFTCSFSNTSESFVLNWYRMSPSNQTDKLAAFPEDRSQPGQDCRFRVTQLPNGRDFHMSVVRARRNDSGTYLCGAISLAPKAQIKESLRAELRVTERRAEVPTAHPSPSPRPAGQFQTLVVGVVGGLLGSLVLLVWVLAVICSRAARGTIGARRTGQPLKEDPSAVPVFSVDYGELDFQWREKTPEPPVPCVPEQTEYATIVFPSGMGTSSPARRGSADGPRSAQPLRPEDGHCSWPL
row,Structure (SMILES),IC50
1,CC(C)[C@@H]1NC(=O)[C@H](Cc2c[nH]c3ccccc23)NC(=O)[C@H](CC(=O)O)NC(=O)[C@H](Cc2ccc(C(=O)O)cc2)NC(=O)[C@H](Cc2ccc(OCC(=O)O)cc2)NC(=O)CSC[C@@H](C(=O)N[C@@H](C)C(N)=O)NC(=O)[C@H]([C@@H](C)O)NC(=O)[C@H](C(C)C)NC(=O)[C@H](CC2CCCCC2)NC(=O)[C@H](CCN)NC(=O)[C@@H](CC2CCCCC2)NC(=O)[C@H](CCCN)NC(=O)[C@H](CCC(=O)O)NC(=O)[C@H](Cc2ccc(-c3ccccc3)cc2)NC1=O [Compound 1444] ({CH2CO}-Y(Carboxymethyl)[Phe(4-COOH)]DWV[Bip]E[Orn][dCha][Dab][Cha]VTCA-NH2; thioether N-14),5.7 nM
2,CC(C)[C@@H]1NC(=O)[C@H](Cc2c[nH]c3ccccc23)NC(=O)[C@H](CC(=O)O)NC(=O)[C@H](Cc2ccc(C(=O)O)cc2)NC(=O)[C@H](Cc2ccncc2)NC(=O)CSC[C@@H](C(=O)N[C@@H](C)C(N)=O)NC(=O)[C@H]([C@@H](C)O)NC(=O)[C@H](C(C)C)NC(=O)[C@H](CC2CCCCC2)NC(=O)[C@H](CCN)NC(=O)[C@@H](Cc2ccc(O)cc2)NC(=O)[C@H](CCCN)NC(=O)[C@H](CCC(=O)O)NC(=O)[C@H](Cc2ccc(-c3ccccc3)cc2)NC1=O [Compound 1445] ({CH2CO}-[4Pal][Phe(4-COOH)]DWV[Bip]E[Orn][dY][Dab][Cha]VTCA-NH2; thioether N-14),19.5 nM
3,CC(C)[C@@H]1NC(=O)[C@H](Cc2c[nH]c3ccccc23)NC(=O)[C@H](CC(=O)O)NC(=O)[C@H](Cc2ccncc2)NC(=O)[C@H](CN)NC(=O)CSC[C@@H](C(=O)N[C@@H](C)C(N)=O)NC(=O)[C@H]([C@@H](C)O)NC(=O)[C@H](C(C)C)NC(=O)[C@H](CC2CCCCC2)NC(=O)[C@H](CCN)NC(=O)[C@@H](Cc2ccc(O)cc2)NC(=O)[C@H](CCCN)NC(=O)[C@H](CCC(=O)O)NC(=O)[C@H](Cc2ccc(-c3ccccc3)cc2)NC1=O [Compound 1446] ({CH2CO}-[Dap][4Pal]DWV[Bip]E[Orn][dY][Dab][Cha]VTCA-NH2; thioether N-14),64.5 nM
4,CC(C)[C@@H]1NC(=O)[C@H](Cc2c[nH]c3ccccc23)NC(=O)[C@H](CC(=O)O)NC(=O)[C@H](Cc2ccncc2)NC(=O)[C@H](Cc2ccc(OCC(=O)O)cc2)NC(=O)CSC[C@@H](C(=O)N[C@@H](C)C(N)=O)NC(=O)[C@H]([C@@H](C)O)NC(=O)[C@H](C(C)C)NC(=O)[C@H](CC2CCCCC2)NC(=O)[C@H](CCN)NC(=O)[C@@H](Cc2ccc(O)cc2)NC(=O)[C@H](CCCN)NC(=O)[C@H](CCC(=O)O)NC(=O)[C@H](Cc2ccc(-c3ccccc3)cc2)NC1=O [Compound 1447] ({CH2CO}-Y(Carboxymethyl)[4Pal]DWV[Bip]E[Orn][dY][Dab][Cha]VTCA-NH2; thioether N-14),29.8 nM
5,CC(C)[C@@H]1NC(=O)[C@H](Cc2c[nH]c3ccccc23)NC(=O)[C@H](CC(=O)O)NC(=O)[C@H](Cc2ccc(OCC(=O)O)cc2)NC(=O)[C@H](CN)NC(=O)CSC[C@@H](C(=O)N[C@@H](C)C(N)=O)NC(=O)[C@H]([C@@H](C)O)NC(=O)[C@H](C(C)C)NC(=O)[C@H](CC2CCCCC2)NC(=O)[C@H](CCN)NC(=O)[C@@H](Cc2ccc(O)cc2)NC(=O)[C@H](CCCN)NC(=O)[C@H](CCC(=O)O)NC(=O)[C@H](Cc2ccc(-c3ccccc3)cc2)NC1=O [Compound 1448] ({CH2CO}-[Dap]Y(Carboxymethyl)DWV[Bip]E[Orn][dY][Dab][Cha]VTCA-NH2; thioether N-14),26.9 nM
6,CC(C)[C@@H]1NC(=O)[C@H](Cc2c[nH]c3ccccc23)NC(=O)[C@H](CC(=O)O)NC(=O)[C@H](Cc2ccc(C(=O)O)cc2)NC(=O)[C@H](Cc2ccc(OCC(=O)O)cc2)NC(=O)CSC[C@@H](C(=O)N[C@@H](C)C(N)=O)NC(=O)[C@H]([C@@H](C)O)NC(=O)[C@H](C(C)C)NC(=O)[C@H](CC2CCCCC2)NC(=O)[C@H](CCN)NC(=O)[C@@H](Cc2ccc(O)cc2)NC(=O)[C@H](CCCN)NC(=O)[C@H](CCC(=O)O)NC(=O)[C@H](Cc2ccc(-c3ccccc3)cc2)NC1=O [Compound 1449] ({CH2CO}-Y(Carboxymethyl)[Phe(4-COOH)]DWV[Bip]E[Orn][dY][Dab][Cha]VTCA-NH2; thioether N-14),32.9 nM
7,CCCC[C@H]1NC(=O)[C@H](CCCN)NC(=O)[C@H](CCC(=O)O)NC(=O)[C@H](Cc2ccc(-c3ccccc3)cc2)NC(=O)[C@H](C(C)C)NC(=O)[C@H](Cc2c[nH]c3ccccc23)NC(=O)[C@H](CC(=O)O)NC(=O)[C@H](Cc2ccc(C(=O)O)cc2)NC(=O)[C@H](Cc2ccncc2)NC(=O)CSC[C@@H](C(=O)N[C@@H](C)C(N)=O)NC(=O)[C@H]([C@@H](C)O)NC(=O)[C@H](C(C)C)NC(=O)[C@H](CC2CCCCC2)NC(=O)[C@H](CCN)NC1=O [Compound 1450],7.6 nM
8,CCCC[C@H]1NC(=O)[C@H](CCCN)NC(=O)[C@H](CCC(=O)O)NC(=O)[C@H](Cc2ccc(-c3ccccc3)cc2)NC(=O)[C@H](C(C)C)NC(=O)[C@H](Cc2c[nH]c3ccccc23)NC(=O)[C@H](CC(=O)O)NC(=O)[C@H](Cc2ccncc2)NC(=O)[C@H](Cc2ccc(OCC(=O)O)cc2)NC(=O)CSC[C@@H](C(=O)N[C@@H](C)C(N)=O)NC(=O)[C@H]([C@@H](C)O)NC(=O)[C@H](C(C)C)NC(=O)[C@H](CC2CCCCC2)NC(=O)[C@H](CCN)NC1=O [Compound 1451] ({CH2CO}-Y(Carboxymethyl)[4Pal]DWV[Bip]E[Orn][dNle][Dab][Cha]VTCA-NH2; thioether N-14),10.3 nM
9,CCCC[C@H]1NC(=O)[C@H](CCCN)NC(=O)[C@H](CCC(=O)O)NC(=O)[C@H](Cc2ccc(-c3ccccc3)cc2)NC(=O)[C@H](C(C)C)NC(=O)[C@H](Cc2c[nH]c3ccccc23)NC(=O)[C@H](CC(=O)O)NC(=O)[C@H](Cc2ccncc2)NC(=O)[C@H](CN)NC(=O)CSC[C@@H](C(=O)N[C@@H](C)C(N)=O)NC(=O)[C@H]([C@@H](C)O)NC(=O)[C@H](C(C)C)NC(=O)[C@H](CC2CCCCC2)NC(=O)[C@H](CCN)NC1=O [Compound 1452] ({CH2CO}-[Dap][4Pal]DWV[Bip]E[Orn][dNle][Dab][Cha]VTCA-NH2; thioether N-14),25.2 nM

# The remaining lines, values ahead:
row,IC50,Structure (SMILES)
1,9.7 nM,CCCC[C@H]1NC(=O)[C@H](CCCN)NC(=O)[C@H](CCC(=O)O)NC(=O)[C@H](Cc2ccc(-c3ccccc3)cc2)NC(=O)[C@H](C(C)C)NC(=O)[C@H](Cc2c[nH]c3ccccc23)NC(=O)[C@H](CC(=O)O)NC(=O)[C@H](Cc2ccc(O)cc2)NC(=O)[C@H](CC(N)=O)NC(=O)CSC[C@@H](C(=O)N[C@@H](C)C(N)=O)NC(=O)[C@H]([C@@H](C)O)NC(=O)[C@H](C(C)C)NC(=O)[C@H](CC2CCCCC2)NC(=O)[C@H](CCN)NC1=O [Compound 1453] ({CH2CO}-NYDWV[Bip]E[Orn][dNle][Dab][Cha]VTCA-NH2; thioether N-14)
2,11.9 nM,CCCC[C@H]1NC(=O)[C@H](CCCN)NC(=O)[C@H](CCC(=O)O)NC(=O)[C@H](Cc2ccc(-c3ccccc3)cc2)NC(=O)[C@H](C(C)C)NC(=O)[C@H](Cc2c[nH]c3ccccc23)NC(=O)[C@H](CC(=O)O)NC(=O)[C@H](Cc2ccc(OCC(=O)O)cc2)NC(=O)[C@H](CN)NC(=O)CSC[C@@H](C(=O)N[C@@H](C)C(N)=O)NC(=O)[C@H]([C@@H](C)O)NC(=O)[C@H](C(C)C)NC(=O)[C@H](CC2CCCCC2)NC(=O)[C@H](CCN)NC1=O [Compound 1454]
3,8.3 nM,CCCC[C@H]1NC(=O)[C@H](CCCN)NC(=O)[C@H](CCC(=O)O)NC(=O)[C@H](Cc2ccc(-c3ccccc3)cc2)NC(=O)[C@H](C(C)C)NC(=O)[C@H](Cc2c[nH]c3ccccc23)NC(=O)[C@H](CC(=O)O)NC(=O)[C@H](Cc2ccc(C(=O)O)cc2)NC(=O)[C@H](Cc2ccc(OCC(=O)O)cc2)NC(=O)CSC[C@@H](C(=O)N[C@@H](C)C(N)=O)NC(=O)[C@H]([C@@H](C)O)NC(=O)[C@H](C(C)C)NC(=O)[C@H](CC2CCCCC2)NC(=O)[C@H](CCN)NC1=O [Compound 1455]
4,6.1 nM,CC(C)C[C@H]1NC(=O)[C@H](CN)NC(=O)[C@H](C(C)C)NC(=O)[C@H](Cc2ccc(-c3ccccc3)cc2)NC(=O)[C@H](C(C)C)NC(=O)[C@H](Cc2c[nH]c3ccccc23)NC(=O)[C@H](CC(=O)O)NC(=O)[C@H](Cc2ccncc2)NC(=O)[C@H](Cc2ccc(OCC(=O)O)cc2)NC(=O)CSC[C@@H](C(=O)NCC(N)=O)NC(=O)[C@H](CO)NC(=O)[C@H](C(C)C)NC(=O)[C@H](CC2CCCCC2)NC(=O)[C@H](CC(N)=O)NC1=O [Compound 1456] ({CH2CO}-Y(Carboxymethyl)[4Pal]DWV[Bip]V[Dap][dL]N[Cha]VSCG-NH2; thioether N-14)
5,19.8 nM,CC(C)C[C@H]1NC(=O)[C@H](CCCN)NC(=O)[C@H](CCC(=O)O)NC(=O)[C@H](Cc2ccc(-c3ccccc3)cc2)NC(=O)[C@H](C(C)C)NC(=O)[C@H](Cc2cccc(C(F)(F)F)c2)NC(=O)[C@H](CC(=O)O)NC(=O)[C@H](Cc2ccc(O)cc2)NC(=O)[C@H](CC(N)=O)NC(=O)CSC[C@@H](C(=O)N[C@@H](C)C(N)=O)NC(=O)[C@H]([C@@H](C)O)NC(=O)[C@H](C(C)C)NC(=O)[C@H](CC2CCCCC2)NC(=O)[C@H](CCN)NC1=O [Compound 1457] ({CH2CO}-NYD[Phe(3-CF3)]V[Bip]E[Orn][dL][Dab][Cha]VTCA-NH2; thioether N-14)
6,17.9 nM,CC(C)C[C@H]1NC(=O)[C@H](CCCN)NC(=O)[C@H](CCC(=O)O)NC(=O)[C@H](Cc2ccc(-c3ccccc3)cc2)NC(=O)[C@H](C(C)C)NC(=O)[C@H](Cc2cccc(C(F)(F)F)c2)NC(=O)[C@H](CC(=O)O)NC(=O)[C@H](Cc2ccc(OCC(=O)O)cc2)NC(=O)[C@H](CN)NC(=O)CSC[C@@H](C(=O)N[C@@H](C)C(N)=O)NC(=O)[C@H]([C@@H](C)O)NC(=O)[C@H](C(C)C)NC(=O)[C@H](CC2CCCCC2)NC(=O)[C@H](CCN)NC1=O [Compound 1458]
